From patent publication US11987570B1, “10-(2-hydroxyethyl)-9-(2-hydroxypyridin-3-yl)-3,4,6,7,9,10-hexahydroacridine-1,8(2H,5H)-dione as an antimicrobial compound” (KING FAISAL UNIVERSITY, priority 2023, dated 2024)

Experiments:
Format in all cases: cell-based
Settings in all cases: after 10, 20, 40 and 60 minutes at all dilutions 1:100, 1:200, 1:400, 1:800
Staphylococcus aureus = assay: Antimicrobial screening by agar dilution, Staphylococcus aureus
Protocol: (§1) The antibacterial properties of the synthesized compound (10-(2-hydroxyethyl)-9-(2-hydroxypyridin-3-yl)-3,4,6,7,9,10-hexahydroacridine-1,8(2H,5H)-dione) were studied by the method of agar dilution. Test solutions of each compound was prepared in concentration of 1% using dimethylformamide as a solvent then they are diluted in physiological solution to obtain the final experimental dilutions 1:100, 1:200, 1:400, 1:800. The effect of these substances are compared with furacillin in a controllable study. The testing microbes used were gram positive bacteria Staphylococcus aureus, gram negative bacteria Pseudomonas aeruginosa and Escherichia coli and Candida albicans fungus. The experiments used for this survey were meat-pentonlu agar (EPA) for cultivation of bacteria and Saburo environment for the fungus. Each experiment used 1 mL of test solution on each plate […]. Two drops of emulsified with microbes feel were added. All experimental samples were taken from the agar after 10, 20, 40, 60 minutes in the environment on the basis of Patrk planted. The bacteria were cultivated at a temperature of 37° C. for 1 day and the mushroom was kept in a thermostat for 2 hours at a temperature of 28° C. Then results were checked.

Escherichia coli = assay: Antimicrobial screening by agar dilution, Escherichia coli
Protocol: as §1

Pseudomonas aeruginosa = assay: Antimicrobial screening by agar dilution, Pseudomonas aeruginosa
Protocol: as §1

Candida albicans = assay: Antimicrobial screening by agar dilution, Candida albicans
Protocol: as §1

Measured: inhibition activity

O=C1CCCC2=C1C(c1cccnc1O)C1=C(CCCC1=O)N2CCO [10-(2-hydroxyethyl)-9-(2-hydroxypyridin-3-yl)-3,4,6,7,9,10-hexahydroacridine-1,8(2H,5H)-dione]
highest inhibition activity: all assays above
